Values quoted from earlier work in US20040248775A1, “Methods for screening inhibitors of apoptosis” (Wyeth, priority 2003, published 2004).

Target: T1, Apaf-1 (Homo sapiens, UniProt O14727)
T1 sequence (O14727 1-1248): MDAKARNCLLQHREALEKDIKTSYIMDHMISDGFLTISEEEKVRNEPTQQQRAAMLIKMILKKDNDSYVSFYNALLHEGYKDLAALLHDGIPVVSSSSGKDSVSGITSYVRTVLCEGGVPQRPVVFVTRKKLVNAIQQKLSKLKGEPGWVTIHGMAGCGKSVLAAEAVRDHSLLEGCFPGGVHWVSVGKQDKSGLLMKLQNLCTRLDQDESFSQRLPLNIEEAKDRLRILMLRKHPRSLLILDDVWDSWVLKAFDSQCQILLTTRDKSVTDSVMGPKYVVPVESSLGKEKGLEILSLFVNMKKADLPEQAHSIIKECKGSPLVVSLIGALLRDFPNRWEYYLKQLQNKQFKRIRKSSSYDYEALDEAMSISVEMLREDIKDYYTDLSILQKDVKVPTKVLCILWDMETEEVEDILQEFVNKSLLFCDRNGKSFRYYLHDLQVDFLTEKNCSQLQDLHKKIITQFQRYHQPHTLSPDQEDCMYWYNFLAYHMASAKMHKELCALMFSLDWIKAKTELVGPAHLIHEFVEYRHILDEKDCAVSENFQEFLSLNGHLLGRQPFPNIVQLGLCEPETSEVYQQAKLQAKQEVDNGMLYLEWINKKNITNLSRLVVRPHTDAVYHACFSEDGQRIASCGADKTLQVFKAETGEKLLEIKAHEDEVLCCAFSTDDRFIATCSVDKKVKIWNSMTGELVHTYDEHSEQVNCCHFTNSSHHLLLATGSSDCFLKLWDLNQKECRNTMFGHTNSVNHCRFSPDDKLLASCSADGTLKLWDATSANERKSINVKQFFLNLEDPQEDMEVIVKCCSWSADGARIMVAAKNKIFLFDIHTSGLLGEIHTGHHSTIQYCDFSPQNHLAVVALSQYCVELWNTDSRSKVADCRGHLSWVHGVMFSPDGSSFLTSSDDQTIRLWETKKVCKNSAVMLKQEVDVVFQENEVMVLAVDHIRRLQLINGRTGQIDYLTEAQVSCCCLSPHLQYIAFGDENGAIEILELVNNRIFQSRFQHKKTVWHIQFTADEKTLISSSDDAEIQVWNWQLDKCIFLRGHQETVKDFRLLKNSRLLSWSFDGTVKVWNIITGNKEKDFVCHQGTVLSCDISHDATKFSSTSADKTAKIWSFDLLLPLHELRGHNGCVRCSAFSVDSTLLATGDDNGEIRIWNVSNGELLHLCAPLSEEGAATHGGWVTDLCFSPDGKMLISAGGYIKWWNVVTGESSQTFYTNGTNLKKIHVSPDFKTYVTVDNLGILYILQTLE
Settings: Jiang et al., 2000; cited from earlier work

For Nc1ncnc2c1ncn2[C@H]1C[C@H](O)[C@@H](COP(=O)(O)OP(=O)(O)OP(=O)(O)O)O1 [dATP], the “affinity of purine nucleotides for Apaf-1” value is listed as “greatest affinity”.
